From the supplement of paper PMC10307832

Key:
Experiment in all cases: relative viability (nuclei count vs DMSO), 5 days (fraction); higher = more cells survive
Palbociclib = compound: CC(=O)c1c(C)c2cnc(Nc3ccc(N4CCNCC4)cn3)nc2n(C2CCCC2)c1=O [Palbociclib]
Procedure, shortened: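 MetaXpress counted nuclei in 4× images of lung cancer cell lines that had been fixed, permeabilised and Hoechst-stained in one step. Before that, cells in 1536-well plates were kept overnight at 37 °C, pinned with five √10-spaced library-drug doses on vehicle-anchored plates, and cultured 5 days without medium change. Viability takes treated-well nuclei over vehicle-well nuclei and uses the median across plates. Plates were accepted only at control CV below 25% and at least one doubling.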

Palbociclib + Lapatinib = compound: CC(=O)c1c(C)c2cnc(Nc3ccc(N4CCNCC4)cn3)nc2n(C2CCCC2)c1=O [Palbociclib] + CS(=O)(=O)CCNCc1ccc(-c2ccc3ncnc(Nc4ccc(OCc5cccc(F)c5)c(Cl)c4)c3c2)o1 [Lapatinib] (partner 2 µM)
Procedure, shortened: (§1)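 Cells from lung cancer lines were seeded into 1536-well plates and, one day later, dosed by pin tool. Treatments were either a single drug or a fixed dose of an anchor drug with five library-drug doses (not always all listed) in √10 steps. After 5 days, nuclei were stained in a one-step fixation (final 0.05% Triton X-100, 1% formaldehyde, 1 ug/ml Hoechst) and counted on 4× images, and relative viability is the treated-to-vehicle nuclei ratio, as the median of duplicate plates.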

Palbociclib + Pictilisib = compound: CC(=O)c1c(C)c2cnc(Nc3ccc(N4CCNCC4)cn3)nc2n(C2CCCC2)c1=O [Palbociclib] + CS(=O)(=O)N1CCN(Cc2cc3nc(-c4cccc5[nH]ncc45)nc(N4CCOCC4)c3s2)CC1 [Pictilisib] (partner 1 µM)
Procedure, shortened: as §1

| Cell Line | relative viability (Palbociclib; 0.01 µM) | relative viability (Palbociclib; 0.03162 µM) | relative viability (Palbociclib; 0.1 µM) | relative viability (Palbociclib; 0.3162 µM) | relative viability (Palbociclib; 0.5 µM, anchor plate) | relative viability (Palbociclib; 1 µM) | relative viability (Palbociclib + Lapatinib; first compound 0.01 µM) | relative viability (Palbociclib + Lapatinib; first compound 0.03162 µM) | relative viability (Palbociclib + Lapatinib; first compound 0.1 µM) | relative viability (Palbociclib + Lapatinib; first compound 0.3162 µM) | relative viability (Palbociclib + Lapatinib; first compound 1 µM) | relative viability (Palbociclib + Pictilisib; first compound 0.01 µM) | relative viability (Palbociclib + Pictilisib; first compound 0.03162 µM) | relative viability (Palbociclib + Pictilisib; first compound 0.1 µM) | relative viability (Palbociclib + Pictilisib; first compound 0.3162 µM) | relative viability (Palbociclib + Pictilisib; first compound 1 µM) |
| --- | --- | --- | --- | --- | --- | --- | --- | --- | --- | --- | --- | --- | --- | --- | --- | --- |
| A-427 | 0.941 | 0.775 | 0.755 | 0.727 | 0.529 | 0.534 | 0.965 | 0.735 | 1.03 | 0.895 | 0.648 | 0.703 | 0.648 | 0.592 | 0.447 | 0.347 |
| NCI-H1993 | 1.05 | 0.882 | 0.726 | 0.69 | 0.658 | 0.67 | 0.841 | 0.715 | 0.661 | 0.624 | 0.658 | 0.858 | 0.628 | 0.829 | 0.812 | 0.632 |
| NCI-H650 | 0.971 | – | 0.711 | 0.794 | 0.327 | 0.516 | 1.3 | – | 0.657 | 0.818 | 0.434 | 1.02 | – | 0.364 | 0.659 | 0.489 |
| LXF-289 | 1.01 | 0.878 | 0.928 | 0.899 | 0.593 | 0.796 | 0.852 | 0.888 | 0.838 | 0.747 | 0.7 | 0.752 | 0.807 | 0.642 | 0.69 | 0.474 |
| LK-2 | 1 | 0.736 | 0.8 | 0.965 | 0.727 | 0.803 | 1.09 | – | 0.642 | 1.23 | 0.842 | 0.574 | – | 0.365 | 0.529 | 0.501 |
| BEN | 1.04 | 0.813 | 0.778 | 0.814 | 0.487 | 0.476 | 0.754 | 0.582 | 0.518 | 0.558 | 0.342 | 0.612 | 0.425 | 0.402 | 0.411 | 0.3 |
| NCI-H2087 | 1.08 | 0.546 | 0.815 | 0.586 | 0.242 | 0.364 | 1.08 | 0.814 | 0.688 | 0.649 | 0.442 | 0.83 | 0.669 | 0.478 | 0.498 | 0.393 |
| NCI-H727 | 0.814 | 0.786 | 0.653 | 0.659 | 0.625 | 0.564 | 0.777 | 0.555 | 0.417 | 0.386 | 0.436 | 0.401 | 0.287 | 0.258 | 0.318 | 0.239 |
| EBC-1 | 1.02 | 0.809 | 0.662 | 0.543 | – | 0.248 | 0.221 | 0.215 | 0.178 | 0.191 | 0.192 | 0.366 | 0.241 | 0.202 | 0.178 | 0.183 |
| LCLC-97TM1 | 1.03 | – | 0.657 | 0.741 | 0.225 | 0.272 | 0.891 | – | 0.894 | 0.697 | 0.304 | 0.199 | – | 0.122 | 0.157 | 0.101 |
| PC-14 | 1.13 | 0.847 | 0.841 | 0.873 | 0.514 | 0.503 | 0.348 | 0.343 | 0.257 | 0.202 | 0.195 | 0.764 | 0.653 | 0.579 | 0.537 | 0.254 |
| NCI-H520 | 0.915 | 0.677 | 0.596 | 0.549 | 0.237 | 0.36 | 0.92 | 0.556 | 0.695 | 0.572 | 0.243 | 0.283 | 0.201 | 0.229 | 0.213 | 0.229 |
| LC-2-ad | 0.902 | – | 0.816 | 0.73 | 0.479 | 0.518 | 0.947 | – | 0.736 | 0.705 | 0.491 | 0.45 | – | 0.346 | 0.305 | 0.223 |
| NCI-H1915 | 1.01 | 0.695 | 0.973 | 0.902 | 0.527 | 0.756 | 0.972 | 0.379 | 1.04 | 0.942 | 0.808 | 0.875 | 0.504 | 0.846 | 0.808 | 0.621 |
| EPLC-272H | 1.07 | – | 0.798 | 0.828 | 0.33 | 0.456 | 1.14 | – | 0.71 | 0.603 | 0.718 | 0.377 | – | 0.272 | 0.266 | 0.262 |
| NCI-H322M | 0.888 | 0.825 | 0.633 | 0.648 | 0.492 | 0.502 | 0.637 | 0.563 | 0.513 | 0.482 | 0.387 | 0.474 | 0.495 | 0.459 | 0.393 | 0.34 |
| NCI-H1437 | 1.02 | 0.877 | 0.863 | 0.823 | 0.311 | 0.571 | 0.819 | 0.755 | 0.693 | 0.67 | 0.36 | 0.424 | 0.38 | 0.366 | 0.317 | 0.162 |

| Cell Line | relative viability (Palbociclib; 0.01 µM) | relative viability (Palbociclib; 0.03162 µM) | relative viability (Palbociclib; 0.1 µM) | relative viability (Palbociclib; 0.3162 µM) | relative viability (Palbociclib; 0.5 µM, anchor plate) | relative viability (Palbociclib; 1 µM) | relative viability (Palbociclib + Lapatinib; first compound 0.01 µM) | relative viability (Palbociclib + Lapatinib; first compound 0.03162 µM) | relative viability (Palbociclib + Lapatinib; first compound 0.1 µM) | relative viability (Palbociclib + Lapatinib; first compound 0.3162 µM) | relative viability (Palbociclib + Lapatinib; first compound 1 µM) | relative viability (Palbociclib + Pictilisib; first compound 0.01 µM) | relative viability (Palbociclib + Pictilisib; first compound 0.03162 µM) | relative viability (Palbociclib + Pictilisib; first compound 0.1 µM) | relative viability (Palbociclib + Pictilisib; first compound 0.3162 µM) | relative viability (Palbociclib + Pictilisib; first compound 1 µM) |
| --- | --- | --- | --- | --- | --- | --- | --- | --- | --- | --- | --- | --- | --- | --- | --- | --- |
| NCI-H1703 | 0.912 | 0.676 | 0.842 | 0.444 | – | 0.345 | 0.99 | – | 0.833 | 0.602 | 0.451 | 0.225 | 0.211 | 0.242 | 0.252 | 0.21 |
| NCI-H1734 | 0.951 | 0.592 | 0.75 | 0.659 | 0.345 | 0.538 | 1.01 | 0.575 | 0.867 | 0.789 | 0.531 | 0.39 | 0.387 | 0.331 | 0.344 | 0.235 |
| NCI-H2023 | 0.913 | 0.773 | 0.694 | 0.625 | 0.392 | 0.4 | 0.728 | 0.165 | 0.545 | 0.55 | 0.353 | 0.2 | 0.151 | 0.151 | 0.15 | 0.111 |
| EMC-BAC-2 | 0.999 | 0.749 | 0.791 | 0.736 | 0.514 | 0.589 | 0.908 | 0.515 | 0.793 | 0.689 | 0.597 | 0.553 | 0.445 | 0.442 | 0.414 | 0.345 |
| NCI-H2170 | 0.993 | 0.856 | 0.94 | 0.894 | 0.382 | 0.704 | 0.29 | 0.23 | 0.245 | 0.233 | 0.25 | 0.346 | 0.252 | 0.253 | 0.239 | 0.206 |
| NCI-H2126 | 0.996 | 0.649 | 0.792 | 0.694 | 0.353 | 0.464 | 0.819 | 0.581 | 0.728 | 0.618 | 0.452 | 0.502 | 0.475 | 0.444 | 0.402 | 0.328 |
| HCC-44 | 0.891 | 0.82 | 0.969 | 0.96 | 0.962 | 1.02 | 0.886 | 0.939 | 0.978 | 0.979 | 1.02 | 0.658 | 0.538 | 0.544 | 0.642 | 0.521 |
| HCC-366 | 1 | – | 0.977 | 1 | 0.383 | 0.859 | 1.06 | – | 0.953 | 0.91 | 0.608 | 0.137 | – | 0.168 | 0.14 | 0.0548 |
| SW 1573 | 0.994 | 0.789 | 0.8 | 0.723 | 0.419 | 0.617 | 1.01 | 1.09 | 1.04 | 0.901 | 0.781 | 0.447 | 0.389 | 0.322 | 0.327 | 0.289 |
| NCI-H1792 | 0.987 | 0.8 | 0.696 | 0.612 | 0.678 | 0.383 | 0.872 | 0.728 | 0.882 | 0.752 | 0.543 | 0.298 | 0.255 | 0.222 | 0.229 | 0.15 |
| NCI-H1355 | 0.999 | 0.672 | 0.884 | 0.844 | 0.427 | 0.62 | 0.949 | – | 0.901 | 0.793 | 0.523 | 0.449 | – | 0.23 | 0.273 | 0.241 |
| CAL-12T | 1 | 0.851 | 0.75 | 0.651 | 0.446 | 0.611 | 0.759 | – | – | 0.367 | 0.334 | 0.471 | – | – | 0.263 | 0.281 |
| HCC-827 | 1.04 | 0.904 | 0.887 | 0.912 | 0.483 | 0.786 | 0.217 | 0.19 | 0.161 | 0.202 | 0.182 | 0.859 | 1.02 | 0.986 | 0.951 | 0.746 |
| ABC-1 | 1.02 | 0.853 | 0.81 | 0.785 | 0.755 | 0.686 | 1.01 | 1.3 | 1.26 | 1.07 | 1.25 | 0.756 | 0.758 | 0.532 | 0.516 | 0.423 |
| SK-LU-1 | 1.05 | 0.912 | 0.828 | 0.794 | 0.385 | 0.563 | 1.02 | 0.856 | 0.624 | 0.619 | 0.529 | 0.559 | 0.474 | 0.445 | 0.383 | 0.286 |
| NCI-H2085 | 0.979 | 0.966 | 0.879 | 0.805 | 0.475 | 0.574 | 0.756 | 0.7 | 0.669 | 0.663 | 0.362 | 0.517 | 0.427 | 0.398 | 0.361 | 0.318 |
